Measured values taken from patent US20070116713A1, “Compositions and methods for reducing or controlling blood cholesterol, lipoproteins, triglycerides and atherosclerosis” (priority 2005, published 2007).

Test: Case study: subjects taking capsules of the exemplary composition with exercise and low-fat diet; total cholesterol, triglycerides, LDL, HDL tracked
Format: in vivo, humans
Conditions: in two of the subjects; removed from the formulation
Excerpt: An initial study included 34 subjects. The subjects were advised to exercise and follow a strict low-fat diet, in addition to consuming doses of the exemplary composition. The subjects were tracked from 8 to 24 months.
It is contemplated within the scope of the invention to provide alternate formulations which eliminate nicotinic acid for use by those persons who cannot tolerate it.

O=C(O)c1cccnc1 [nicotinic acid]
tolerability of nicotinic acid in the formulation: not tolerated
